Assay results published in paper PMC10205683, “Structure Based Discovery of Inhibitors of CYP125 and CYP142 from Mycobacterium tuberculosis” (Chemistry (Weinheim an Der Bergstrasse, Germany), 2023).
In brackets after ≈: the same amount, converted by molar mass. Read-outs that look alike come from different tables or passages of the source.

What was measured:
[1] = target: T1, CYP125 (Mycobacterium tuberculosis, UniProt P9WPP1); assay: biochemical; format: binding; conditions: UV-Vis spectroscopy
T1 construct: encoding residues 18-433; twin-strep hexahistidine tag (TEV-cleavable) (N, cleaved yes); made in house; host or cells: E. coli C41(DE3), pET21a
T1 sequence (P9WPP1 18-433 limits assumed): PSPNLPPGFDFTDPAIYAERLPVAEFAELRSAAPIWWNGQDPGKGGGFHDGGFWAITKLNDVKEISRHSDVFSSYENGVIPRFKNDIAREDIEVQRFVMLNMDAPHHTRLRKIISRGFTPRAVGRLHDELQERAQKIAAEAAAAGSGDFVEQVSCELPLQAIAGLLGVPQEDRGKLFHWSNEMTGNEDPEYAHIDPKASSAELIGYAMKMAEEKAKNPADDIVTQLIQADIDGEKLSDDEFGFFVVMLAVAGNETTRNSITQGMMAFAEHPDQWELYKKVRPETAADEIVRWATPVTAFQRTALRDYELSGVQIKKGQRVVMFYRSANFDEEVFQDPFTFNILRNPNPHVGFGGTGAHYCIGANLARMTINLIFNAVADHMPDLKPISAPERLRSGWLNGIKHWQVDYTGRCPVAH

[2] = target: T2, CYP142 (Mycobacterium tuberculosis, UniProt P9WPL5); assay: biochemical; conditions: UV-Vis spectroscopy
T2 sequence (P9WPL5 2-398): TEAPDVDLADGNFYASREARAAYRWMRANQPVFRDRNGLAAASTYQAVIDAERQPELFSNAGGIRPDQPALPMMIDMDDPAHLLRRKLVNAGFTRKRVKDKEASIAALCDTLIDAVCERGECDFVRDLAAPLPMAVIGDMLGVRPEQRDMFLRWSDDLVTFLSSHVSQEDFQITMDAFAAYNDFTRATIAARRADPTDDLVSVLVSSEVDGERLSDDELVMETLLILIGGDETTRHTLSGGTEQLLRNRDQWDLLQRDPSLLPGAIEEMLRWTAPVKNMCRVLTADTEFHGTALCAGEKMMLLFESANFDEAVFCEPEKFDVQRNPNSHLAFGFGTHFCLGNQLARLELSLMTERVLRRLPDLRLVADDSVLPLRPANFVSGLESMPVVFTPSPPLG

[3] = system: Mtb H37Rv (ATCC 27294); assay: MIC determination against Mtb H37Rv; format: cell-based, Mycobacterium tuberculosis
[4] = system: Mtb strain KB019; assay: microbe, parasite or virus in culture; format: cell-based; conditions: Mycobacterium tuberculosis
[5] = system: Mtb strain K18b01MR; assay: microbe, parasite or virus in culture; format: cell-based; conditions: Mycobacterium tuberculosis
[6] = system: Mtb strain NIH_G269DR; assay: microbe, parasite or virus in culture; format: cell-based; conditions: Mycobacterium tuberculosis
[7] = system: Mtb strain K03b00DS; assay: MIC determination against Mtb K03b00DS (DS); format: cell-based; conditions: Mycobacterium tuberculosis
[8] = system: Mtb strain CDC1551; assay: MIC determination against Mtb CDC1551 (clinical strain); format: cell-based; conditions: Mycobacterium tuberculosis
[9] = system: Mtb strain 53 K113; assay: microbe, parasite or virus in culture; format: cell-based; conditions: Mycobacterium tuberculosis
[10] = system: Mtb strain 028 K111; assay: microbe, parasite or virus in culture; format: cell-based; conditions: Mycobacterium tuberculosis
[11] = target: T2, CYP142; conditions: read-out: KD (CYP142); UV-Vis spectroscopy
[12] = Mycobacterium tuberculosis, 168 h
[13] = Mycobacterium tuberculosis, 336 h
[14] = Mycobacterium tuberculosis, 168 h, Table S1, H37Rv, […], 1 Week

Structure (SMILES) | Kd [1] [nM] | Kd [2] [nM] | MIC [3, 13] [µM] | MIC ([4]; KB019, 168 h) [µM] | MIC ([4]; KB019, 336 h) [µM] | MIC ([5]; 168 h) [µM] | MIC ([5]; 336 h) [µM] | MIC ([6]; 168 h) [µM] | MIC ([6]; 336 h) [µM] | MIC ([7]; 168 h) [µM] | MIC ([7]; 336 h) [µM] | MIC ([8]; 168 h) [µM] | MIC ([8]; 336 h) [µM] | MIC ([9]; 53K113, 168 h) [µM] | MIC ([9]; 53K113, 336 h) [µM] | MIC ([10]; 028K111, 168 h) [µM] | MIC ([10]; 028K111, 336 h) [µM] | MIC [3, 14] [µM] | also measured
CCOC(=O)c1cc2cc(-c3ccncc3)ccc2n1CC1CCNCC1 [Compound 11] | 14800 ± 900 | 710 ± 90 | – | – | – | – | – | – | – | – | – | – | – | – | – | – | – | – | –
CCOC(=O)c1cc2cc(-c3ccncc3)ccc2n1CCN1CCOCC1 [Compound 12] | 2800 ± 100 | 1100 ± 100 | – | – | – | – | – | – | – | – | – | – | – | – | – | – | – | – | –
NC(=O)c1cc2cc(-c3ccncc3)ccc2n1CC1CCCCC1 [Compound 13] | 450 ± 40 | 30 ± 7 | – | – | – | – | – | – | – | – | – | – | – | – | – | – | – | – | –
c1cc(-c2ccc3c(ccn3CCN3CCNCC3)c2)ccn1 [Compound 14] | 271000 ± 13000 | 11100 ± 500 | – | – | – | – | – | – | – | – | – | – | – | – | – | – | – | – | –
NC(=O)c1cc2cc(-c3ccncc3)ccc2n1CCN1CCNCC1 [Compound 15] | 48800 ± 2300 | 2500 ± 200 | – | – | – | – | – | – | – | – | – | – | – | – | – | – | – | – | –
Cc1noc(-c2cc3cc(-c4ccncc4)ccc3n2CCC2CCNCC2)n1 [Compound 16] | > 100000 | 390 ± 50 | 12.5 (≈ 4.84 µg/mL) | 9.4 (≈ 3.64 µg/mL) | 12.5 (≈ 4.84 µg/mL) | 6.25 (≈ 2.42 µg/mL) | 6.25 (≈ 2.42 µg/mL) | 6.25 (≈ 2.42 µg/mL) | 9.4 (≈ 3.64 µg/mL) | 6.25 (≈ 2.42 µg/mL) | 6.25 (≈ 2.42 µg/mL) | 6.25 (≈ 2.42 µg/mL) | 6.25 (≈ 2.42 µg/mL) | 6.25 (≈ 2.42 µg/mL) | 6.25 (≈ 2.42 µg/mL) | 6.25 (≈ 2.42 µg/mL) | 6.25 (≈ 2.42 µg/mL) | – | MIC [3, 12]: 4.7 µM (≈ 1.82 µg/mL)
Cc1cnc(-c2cc3cc(-c4ccncc4)ccc3n2CCC2CCNCC2)o1 [Compound 17] | 5300 ± 200 | 790 ± 50 | 19 (≈ 7.34 µg/mL) | 12.5 (≈ 4.83 µg/mL) | 19 (≈ 7.34 µg/mL) | 6.25 (≈ 2.42 µg/mL) | 6.25 (≈ 2.42 µg/mL) | 6.25 (≈ 2.42 µg/mL) | 6.25 (≈ 2.42 µg/mL) | 4.7 (≈ 1.82 µg/mL) | 4.7 (≈ 1.82 µg/mL) | 6.25 (≈ 2.42 µg/mL) | 6.25 (≈ 2.42 µg/mL) | 6.25 (≈ 2.42 µg/mL) | 6.25 (≈ 2.42 µg/mL) | 6.25 (≈ 2.42 µg/mL) | 6.25 (≈ 2.42 µg/mL) | – | –
Cc1nnc(-c2cc3cc(-c4ccncc4)ccc3n2CCC2CCNCC2)o1 [Compound 18] | 10200 ± 100 | 990 ± 100 | > 50 | > 50 | 50 (≈ 19.4 µg/mL) | 50 (≈ 19.4 µg/mL) | 50 (≈ 19.4 µg/mL) | > 50 | > 50 | 50 (≈ 19.4 µg/mL) | 50 (≈ 19.4 µg/mL) | 50 (≈ 19.4 µg/mL) | 50 (≈ 19.4 µg/mL) | 50 (≈ 19.4 µg/mL) | > 50 | 50 (≈ 19.4 µg/mL) | > 50 | 25 (≈ 9.69 µg/mL) | MIC ([3]; Mycobacterium tuberculosis, 336 h, Table S1, H37Rv, […], 2 Week): 50 µM (≈ 19.4 µg/mL); MIC ([3]; Table S1, H37Rv, […], 1 Week): > 50 µM
CCCC(=O)c1cc2cc(-c3ccncc3)ccc2n1CCC1CCNCC1 [Compound 19] | 3600 ± 200 | – | 12.5 (≈ 4.69 µg/mL) | 12.5 (≈ 4.69 µg/mL) | 19 (≈ 7.13 µg/mL) | 6.25 (≈ 2.35 µg/mL) | 6.25 (≈ 2.35 µg/mL) | 6.25 (≈ 2.35 µg/mL) | 6.25 (≈ 2.35 µg/mL) | 4.7 (≈ 1.76 µg/mL) | 4.7 (≈ 1.76 µg/mL) | 6.25 (≈ 2.35 µg/mL) | 6.25 (≈ 2.35 µg/mL) | 6.25 (≈ 2.35 µg/mL) | 6.25 (≈ 2.35 µg/mL) | 6.25 (≈ 2.35 µg/mL) | 6.25 (≈ 2.35 µg/mL) | 9.4 (≈ 3.53 µg/mL) | MIC [3]: 9.4 µM (≈ 3.53 µg/mL); MIC [3, 12]: 6.25 µM (≈ 2.35 µg/mL); MIC ([3]; Table S1, H37Rv, […], 1 Week): 12.5 µM (≈ 4.69 µg/mL); Kd [11]: 230 ± 50 nM
NNC(=O)c1ccncc1 [Isoniazid, reference compound] | – | – | – | – | – | – | – | – | – | – | – | – | – | – | – | – | – | 0.15 (≈ 0.0206 µg/mL) | –
